# Test results reported in ChEMBL document CHEMBL3739338, “Inhibition of carbonic anhydrase isoforms I, II, IV, VII and XII with carboxylates and sulfonamides incorporating phthalimide/phthalic anhydride scaffolds” (Bioorg Med Chem, 2016).
# Tests used:
# [1] = target: Carbonic anhydrase 2 (Homo sapiens, UniProt P00918); test: Inhibition of human carbonic anhydrase-2 preincubated for 15 mins by stopped flow CO2 dehydration assay
# [2] = target: Carbonic anhydrase 1 (Homo sapiens, UniProt P00915); test: Inhibition of human carbonic anhydrase-1 preincubated for 15 mins by stopped flow CO2 dehydration assay
# Chain of Carbonic anhydrase 1 (P00915 whole entry): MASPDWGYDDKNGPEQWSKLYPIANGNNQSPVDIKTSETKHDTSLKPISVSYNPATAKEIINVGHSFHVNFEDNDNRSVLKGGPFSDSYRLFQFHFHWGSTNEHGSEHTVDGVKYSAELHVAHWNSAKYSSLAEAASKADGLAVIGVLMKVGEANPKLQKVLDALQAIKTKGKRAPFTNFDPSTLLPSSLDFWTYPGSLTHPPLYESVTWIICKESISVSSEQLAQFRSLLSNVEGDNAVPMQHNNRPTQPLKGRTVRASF
# [3] = target: Carbonic anhydrase 4 (Homo sapiens, UniProt P22748); test: Inhibition of human carbonic anhydrase-4 preincubated for 15 mins by stopped flow CO2 dehydration assay
# Chain of Carbonic anhydrase 4 (P22748 whole entry): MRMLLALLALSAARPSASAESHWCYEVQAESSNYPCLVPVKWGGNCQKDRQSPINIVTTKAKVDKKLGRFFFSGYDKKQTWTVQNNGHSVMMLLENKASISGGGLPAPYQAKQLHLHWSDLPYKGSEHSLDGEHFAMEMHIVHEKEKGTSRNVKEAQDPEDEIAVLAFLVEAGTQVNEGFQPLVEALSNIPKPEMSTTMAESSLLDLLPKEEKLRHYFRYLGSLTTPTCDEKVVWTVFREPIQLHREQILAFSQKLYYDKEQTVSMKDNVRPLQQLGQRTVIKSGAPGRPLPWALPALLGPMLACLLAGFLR
SMILES,Ki [1] [µM],Ki [2] [µM],Ki [3] [µM]
COc1cc(NC(=O)c2ccc3c(c2)C(=O)OC3=O)c(C(=O)O)cc1OC,> 10,,> 10
O=C(Nc1ccccc1C(=O)O)c1ccc2c(c1)C(=O)OC2=O,> 10,,
O=C(Nc1ccccc1C(=O)O)c1ccc2c(c1)C(=O)N(c1ccccc1)C2=O,> 10,> 10,> 10
O=C(Nc1ccc(Cl)cc1C(=O)O)c1ccc2c(c1)C(=O)OC2=O,,,> 10
Cc1ccc(NC(=O)c2ccc3c(c2)C(=O)OC3=O)c(C(=O)O)c1,> 10,,
O=C(Nc1ccccc1C(=O)O)c1ccc2c(c1)C(=O)N(Cc1ccccc1)C2=O,> 10,,
O=C(Nc1ccc(I)cc1C(=O)O)c1ccc2c(c1)C(=O)OC2=O,> 10,> 10,> 10

# Next, values leading:
Ki [1] [µM],Ki [2] [µM],Ki [3] [µM],SMILES
0.0105,,,NS(=O)(=O)c1ccc(CN2C(=O)c3ccc(C(=O)Nc4ccccc4C(=O)O)cc3C2=O)cc1
> 10,> 10,,CCOC(=O)c1ccc(N2C(=O)c3ccc(C(=O)Nc4ccccc4C(=O)O)cc3C2=O)cc1
> 10,,,O=C(Nc1ccccc1C(=O)O)c1ccc2c(c1)C(=O)N(CCc1ccccc1)C2=O
0.0138,,,NS(=O)(=O)c1ccc(CCN2C(=O)c3ccc(C(=O)Nc4ccccc4C(=O)O)cc3C2=O)cc1
0.0089,,,NS(=O)(=O)c1ccc(N2C(=O)c3ccc(C(=O)Nc4ccccc4C(=O)O)cc3C2=O)cc1
> 10,> 10,,O=C(O)c1ccc(N2C(=O)c3ccc(C(=O)Nc4ccccc4C(=O)O)cc3C2=O)cc1
